In US20240252463A1, “METHODS OF TREATING FIBROTIC PATHOLOGIES” (Mayo Foundation for Medical Education and Research, priority 2018, published 2024):

How the values were obtained:
CTGF, COL1A1, ACTA2, FN1 = test: qPCR of profibrotic and matrix remodeling gene expression in IPF patient-derived fibroblasts; format: cell-based, human; conditions: 2 ng/mL TGFβ and 10 μM DHX, 24 hours
Method: FIGS. 3A-3F DHX reverses fibroblast matrix deposition, contraction and stiffening. 3a. […] Genes which encode Connective tissue growth factor (CTGF), Collagen I (COL1A1), αSMA (ACTA2), and Fibronectin (FN1) are reduced by 24 hour treatment with DHX (10 μM), +/−SCH 39166 (3 μM). N=3 (****p<0.0001, ***p<0.001, *p<0.05 vs. 0.1% DMSO vehicle control) 3b. DHX reverses TGFβ-induced αSMA+ stress fiber formation. IMR-90 cells pre-stimulated with 2 ng/mL TGFβ for 48 hours and then treated with DHX (10 μM)+2 ng/mL TGFβ for an additional 24 hours prior to fixation. Cells which are positive for αSMA were quantified by a blinded investigator and noted in the bottom right corner, a minimum of 300 cells in each experiment were quantified. N=3. 3c. DHX reverses TGFβ-induced extracellular matrix accumulation. […] Cell derived matrix is measured using antibodies for Collagen I and Fibronectin. […] DHX attenuates IPF patient-derived fibroblast contractility measured by traction force microscopy. […] RMS tractions were determined in two independent experiments; box and whisker plots show min to max, quartile, and mean from one representative experiment (****p<0.0001, *p<0.05 vs. 0.1% DMSO vehicle control). […] The matrices were decellularized and passage 3 NHLFs were plated onto the matrices; after 24 hours RNA was collected and expression of profibrotic genes was analyzed. […]

NIH-3T3 cells = test: Matrix Remodeling Measured by Atomic Force Microscopy (NIH-3T3 cell-derived matrix); format: cell-based, mouse; conditions: TGFβ + ascorbic acid 72 hours, then 10 μM DHX additional 72 hours
Method: Matrix Remodeling Measured by Atomic Force Microscopy: NIH-3T3 cells were plated to confluence onto gelatin coated (Cell Biologics) AFM compatible tissue culture dishes (Willco) in DMEM containing 10% FBS. After cells attached overnight media was replaced with DMEM containing 2% FBS, 2 ng/mL TGFβ, and 20 μg/mL ascorbic acid to promote matrix deposition. After 72 hours, measurements were made using a BioScope Catalyst AFM (Bruker, MA, USA). Microindentations were performed using a 2.5 μm radius sphere-tipped probe (Novascan, IA, USA) with a spring constant determined at ˜100 pN nm^−1 by thermal fluctuation method. For each dish, 3 different areas were analyzed. Force curves were acquired with MIRO 2.0 (NanoScope 9.1; Bruker) at an indentation rate of […] and a ramp size of […] on different points. 75 force curves were performed per cell dish (25 per area). The Young's modulus E was determined by the fitting of force curve by Hertz model using NanoScope Analysis software (Bruker) and considering Poisson's ratio of 0.5. […]
The results above were consistent with DHX not only attenuating key aspects of fibroblast pro-fibrotic activation, but potentially shifting their phenotype toward one that promotes fibrosis clearance and resolution. […] After 72 hours the stiffness of the cells and their cell-derived matrix were measured using atomic force microscopy (AFM). […]

Structure (SMILES): Oc1cc2c(cc1O)[C@H]1c3ccccc3CN[C@@H]1CC2 (racemic) [Dihydrexidine, dihydrexidine]
- expression of matrix crosslinking, protease inhibitor and matrix degradation genes (CTGF, COL1A1, ACTA2, FN1): reversed the effects of TGFβ
- stiffness of cells and cell-derived matrix (AFM) (NIH-3T3 cells): significantly reduced the observed stiffness
